Experimental data as given in US4740233A, “Substituted 1,2,4-triazolo[1,5-a]-pyrimidine-2-sulfonamides and compositions and methods of controlling undesired vegetation and suppressing the nitrification of ammonium nitrogen in soil” (The Dow Chemical Company, priority 1986, dated 1988).

Key:
wheat = experiment: Preemergent control of plant species; assay type: in vivo, Triticum aestivum; conditions: Triticum aestivum, pre-emergence, 336 h; 0.25 lb/acre; read-out: percent preemergent control
Summary of the method: (§1)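 Test compositions were applied evenly to the surface of freshly seeded soil beds and kept under greenhouse conditions for two weeks. Percent control reflects growth reduction compared with water-treated beds of the same species.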

barnyardgrass = experiment: Preemergent control of plant species; assay type: in vivo, Echinochloa crusgalli; conditions: Echinochloa crus-galli, pre-emergence, 336 h; 0.25 lb/acre; read-out: percent preemergent control
Summary of the method: as §1

yellow foxtail = experiment: Preemergent control of plant species; assay type: in vivo, Setaria lutescens; conditions: Setaria, pre-emergence, 336 h; 0.25 lb/acre; read-out: percent preemergent control
Summary of the method: as §1

yellow nutsedge = experiment: Preemergent control of plant species; assay type: in vivo, Cyperus esculentus; conditions: Cyperus, pre-emergence, 336 h; 0.25 lb/acre; read-out: percent preemergent control
Summary of the method: as §1

rape = experiment: Preemergent control of plant species; assay type: in vivo, Brassica napus; conditions: Brassica napus, pre-emergence, 336 h; 0.25 lb/acre; read-out: percent preemergent control
Summary of the method: as §1

cotton = experiment: Preemergent control of plant species; assay type: in vivo, Gossypium spp.; conditions: Gossypium hirsutum, pre-emergence, 336 h; 0.25 lb/acre; read-out: percent preemergent control
Summary of the method: as §1

[1] = test system: nitrification of ammonium nitrogen; experiment: Suppression of nitrification of ammonium nitrogen in soil; conditions: 27° C.
Summary of the method: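 Value is % NH4-N remaining after a two-week, 27° C incubation of treated soil held at 1/3 bar tension moisture. Nitrate was measured with an ion-selective electrode after extraction with ammonium sulfate solution and 10 min shaking.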

jimsonweed = experiment: Preemergent control of plant species; assay type: in vivo, Datura stramonium; conditions: Datura stramonium, pre-emergence, 336 h; 0.25 lb/acre; read-out: percent preemergent control
Summary of the method: as §1

rice = experiment: Preemergent control of plant species; assay type: in vivo, Oryza sativa; conditions: Oryza sativa, pre-emergence, 336 h; 0.25 lb/acre; read-out: percent preemergent control
Summary of the method: as §1

johnson grass = experiment: Preemergent control of plant species; assay type: in vivo, Sorghum halepense; conditions: Sorghum halepense, pre-emergence, 336 h; 0.25 lb/acre; read-out: percent preemergent control
Summary of the method: as §1

sugar beet = experiment: Preemergent control of plant species; assay type: in vivo, Beta saccharifera; conditions: Beta vulgaris, pre-emergence, 336 h; 0.25 lb/acre; read-out: percent preemergent control
Summary of the method: as §1

sorghum = experiment: Preemergent control of plant species; assay type: in vivo, Sorghum vulgare; conditions: Sorghum, pre-emergence, 336 h; 0.25 lb/acre; read-out: percent preemergent control
Summary of the method: as §1

wild oats = experiment: Preemergent control of plant species; assay type: in vivo; conditions: Avena fatua, pre-emergence, 336 h; 0.25 lb/acre; read-out: percent preemergent control
Summary of the method: as §1

soybean = experiment: Preemergent control of plant species; assay type: in vivo, Glycine max.; conditions: Glycine max, pre-emergence, 336 h; 0.25 lb/acre; read-out: percent preemergent control
Summary of the method: as §1

velvetleaf = experiment: Preemergent control of plant species; assay type: in vivo, Abutilon theophrasti; conditions: Abutilon theophrasti, pre-emergence, 336 h; 0.25 lb/acre; read-out: percent preemergent control
Summary of the method: as §1

corn = experiment: Preemergent control of plant species; assay type: in vivo, Zea mays; conditions: Zea mays, pre-emergence, 336 h; 0.25 lb/acre; read-out: percent preemergent control
Summary of the method: as §1

annual morning glory = experiment: Preemergent control of plant species; assay type: in vivo, Ipomoea spp.; conditions: Ipomoea, pre-emergence, 336 h; 0.25 lb/acre; read-out: percent preemergent control
Summary of the method: as §1

Structure (SMILES) | plant injury at 280.212 g/ha (wheat) [%] | pest or weed control at 280.212 g/ha (barnyardgrass) [%] | pest or weed control at 280.212 g/ha (yellow foxtail) [%] | pest or weed control at 280.212 g/ha (yellow nutsedge) [%] | plant injury at 280.212 g/ha (rape) [%] | plant injury at 280.212 g/ha (cotton) [%] | % NH4-N Remaining After 2 Weeks Incubation ([1]; 0.06 ppm) [%] | % NH4-N Remaining After 2 Weeks Incubation ([1]; 0.25 ppm) [%] | % NH4-N Remaining After 2 Weeks Incubation ([1]; 1 ppm) [%] | % NH4-N Remaining After 2 Weeks Incubation ([1]; 4 ppm) [%] | pest or weed control at 280.212 g/ha (jimsonweed) [%] | plant injury at 280.212 g/ha (rice) [%] | pest or weed control at 280.212 g/ha (johnson grass) [%] | plant injury at 280.212 g/ha (sugar beet) [%] | plant injury at 280.212 g/ha (sorghum) [%] | pest or weed control at 280.212 g/ha (wild oats) [%] | plant injury at 280.212 g/ha (soybean) [%] | pest or weed control at 280.212 g/ha (velvetleaf) [%] | plant injury at 280.212 g/ha (corn) [%] | pest or weed control at 280.212 g/ha (annual morning glory) [%]
COc1ccn2nc(S(=O)(=O)Nc3c(Cl)cccc3Cl)nc2n1 [Compound 208] | 0 | 0 | 0 | 60 | 100 | 100 | 38 | 38 | 42 | 37 | 90 | 0 | 0 | 100 | 30 | 0 | 45 | 90 | 0 | 40
C=CCOC(=O)c1cccc(C)c1NS(=O)(=O)c1nc2nc(C)cc(C)n2n1 [Compound 76] | 100 | 70 | 90 | 100 | 100 | 60 | 34 | 52 | 74 | 86 | 100 | 70 | 80 | 100 | 90 | 90 | 95 | 100 | 100 | 90
CC(C)=NOC(=O)c1cccc(C)c1NS(=O)(=O)c1nc2nc(C)cc(C)n2n1 [Compound 78] | 40 | 20 | 20 | 50 | 100 | 0 | 74 | 32 | 53 | 72 | 0 | 40 | 0 | 70 | 0 | 30 | 30 | 30 | 10 | 0
CC=CC(=O)N(c1c(F)cccc1F)S(=O)(=O)c1nc2nc(C)ccn2n1 [Compound 288] | 60 | 100 | 100 | 100 | 100 | 100 |  |  |  |  | 100 | 100 | 100 | 100 | 100 | 90 | 40 | 100 | 80 | 100
